Patent publication US11209421B2, “Cytidine deaminase expression level in cancer as a new therapeutic target” (CENTRE NATIONAL DE LA RECHERCHE SCIENTIFIQUE, priority 2016, dated 2021)
Read-outs that look alike come from different tables or passages of the source.

Tests used:
[1] = tested on: CDA mRNA; assay: RT-qPCR analysis of the induction of CDA expression; type: cell-based, human; conditions: 96 hours, 2.5 μM 5-Aza-dC
Experimental: For evaluation of the induction of CDA expression, RNA was isolated from cell lines continuously treated with 1 or 2.5 μM of 5-Aza-2′-deoxycytidine (5-Aza-dC—Sigma Aldrich) for 96 hours.
The procedure for real-time PCR (RT-qPCR) was as described by Gemble et al. (cf. Reference 19). In brief, total RNA was extracted from PDX tissues and from cell lines with the RNeasy Mini Kit (Qiagen). Reverse transcription was performed on 1 μg of RNA with the GoScript enzyme (Promega). The cDNA obtained was used at a dilution of 1/10 for real-time PCR with the SYBER Green supermix reagent (Biorad) in a Biorad CFX96 machine. Each sample was run in triplicate. Relative expression was determined by the 2^−ΔΔCt method. GAPDH and TBP were used as internal controls.

[2] = tested on: breast cancer cell lines (MDA-MB-231, HCC-1954, MCF-7, BT-20) and IGROV-1
Experimental: D, Cell viability, as assessed in MTT assays on breast cancer cell lines (MDA-MB-231, HCC-1954, MCF-7, BT-20) and an ovarian cell cancer line (IGROV-1) after 96 h of treatment with 5-Aza-dC. Error bars represent the mean±SD of 3 independent experiments for IGROV-1 and 2 experiments for the other cell lines. […] The dashed lines indicate the 5-Aza-dC concentrations used in this study.
Cell viability was carried out with 3-(4,5-dimethyl-2-thiazolyl)-2,5 diphenyl-2H-tetrazolium bromide (MTT-Life Technologies) in 96-well microplates.

[3] = tested on: CDA protein; assay: Western blot analysis of the induction of CDA expression; type: cell-based, human; conditions: HCC-1954 and IGROV-1, 1 μM 5-Aza-dC for 96 h
Experimental: For western blotting, cells were harvested by centrifugation and lysed in 8 M urea, 50 mM Tris-HCl, pH 7.5 and 150 mM β-mercaptoethanol buffer supplemented with protease inhibitor (ThermoScientific). They were then sonicated and heated. Protein concentration was estimated with the BCA kit (Pierce) and the equivalent of 20 μg or protein per cell lysate was run on a 4-12% Bis-Tris pre-cast gel (Life Technologies). The proteins were then transferred to PVDF membranes, which were probed with the appropriate antibody. Protein bands were visualized with a CCD camera (BioRad).

[4] = tested on: MDA-MB-231 xenograft; conditions: cited from earlier work
[5] = tested on: MDA-MB-468 xenograft; conditions: cited from earlier work; for median tumor growth inhibition: compared to control
[6] = tested on: CDA-depleted HeLa cells; assay: Images of CDA-depleted HeLa cells 24 h after Dasatinib treatment; type: cell-based, human; conditions: 24 h after 0.5 or 1 μM
[7] = tested on: HCC-1954 cells; assay: MTT cell viability, HCC-1954 (gemcitabine after 5-Aza-dC pretreatment); type: cell-based, human; conditions: pretreatment 96 h with 1 μM 5-Aza-dC versus untreated, then gemcitabine 72 hours
Experimental: (§1) Cell viability was carried out with 3-(4,5-dimethyl-2-thiazolyl)-2,5 diphenyl-2H-tetrazolium bromide (MTT-Life Technologies) in 96-well microplates. The functionality of CDA was assessed by plating HCC-1954 and IGROV-1 cells at densities of 2000 and 3000 cells/well, respectively, on the day before pretreatment and at a density of 800 cells/well for control conditions. Cells were then left untreated or subjected to pretreatment with 1 μM 5-Aza-dC for 96 h. The cells were washed twice with PBS buffer, placed in fresh medium and incubated for 72 hours in the presence of various concentrations of gemcitabine, from 0.001 to 1 μM (Sigma Aldrich). The data were normalized to corresponding controls, for each condition.

[8] = tested on: IGROV-1 cells; assay: MTT cell viability, IGROV-1; type: cell-based, human; conditions: pretreatment 96 h with 1 μM 5-Aza-dC versus untreated, then gemcitabine 72 hours
Experimental: as §1

[9] = MDA-MB-231 xenograft mice, 70 mg/kg

Nc1ncn([C@H]2C[C@H](O)[C@@H](CO)O2)c(=O)n1 [5-Aza-dC, 5-Aza-2′-deoxycytidine]
induction of CDA mRNA levels ([1]; 7 CDA-deficient cell lines): up to 1000 fold
induction of CDA transcript levels ([1]; MDA-MB-231, HOP-92, HCC-1143 and HCC-1937 control cell lines with constitutively high CDA): two-fold
toxicity (cell viability, MTT) [2]: without major toxicity
induction of CDA protein production [3]: strongly induced the production of a functional CDA protein

Cc1c(F)c(N)c2c(=O)cc(-c3ccc(NC(=O)[C@@H](N)CCCCN)c(F)c3)oc2c1F [AFP464]
tolerance ([4]; MDA-MB-231 xenograft mice, 35 mg/kg): well tolerated
body weight loss [4, 9]: up to 15%
death of mice during the course of treatment [4, 9]: 1 of 7
antitumor activity (inhibition) ([4]; MDA-MB-231 xenograft, AFP464 alone, 35 or 70 mg/kg): 0%
tolerance ([5]; MDA-MB-468 xenograft mice, 35 and 50 mg/kg): well tolerated
tumor growth ([5]; MDA-MB-468 xenograft, 35 or 50 mg/kg i.v., compared to vehicle control): statistically significantly delayed tumor growth
median tumor growth inhibition ([5]; MDA-MB-468 xenograft, after one cycle of treatment): 57%
median tumor growth inhibition ([5]; MDA-MB-468 xenograft, after two cycles of treatment): 54%

Cc1nc(Nc2ncc(C(=O)Nc3c(C)cccc3Cl)s2)cc(N2CCN(CCO)CC2)n1 [NSC 759877, Dasatinib]
effect on cell morphology (images) [6]: no effect

Nc1ccn([C@@H]2O[C@H](CO)[C@@H](O)C2(F)F)c(=O)n1 [gemcitabine]
gemcitabine resistance (cell survival, MTT) [7]: significant increase in gemcitabine resistance
gemcitabine resistance (cell survival, MTT) [8]: significant increase in gemcitabine resistance
